Reference: patent US20130303509A1, “NAMPT INHIBITORS” (AbbVie Inc., priority 2012, published 2013)

System: PC3 cells
Experiment: NAMPT Cell Proliferation Assay
Assay type: cell-based
Settings: Homo sapiens, PC-3, 120 h, 5 days incubation, cell viability by Cell Titer Glo
Method in brief: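 Seeded at 500 cells/well in RPMI with 10% heat-inactivated FBS and left to attach overnight at 37° C, 5% CO2. Compounds were added as 10-fold dilutions […] for 5 days, then viability was read by CellTiter-Glo. IC50s came from sigmoidal fits of percent inhibition.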

Compared with `O=C(Nc1ccc(C2CCN(C(=O)c3ccccc3F)CC2)cc1)C1CN(c2ccnnc2)C1` [Example 551, N-{4-[1-(2-fluorobenzoyl)piperidin-4-yl]phenyl}-1-(pyridazin-4-yl)azetidine-3-carboxamide], `O=C(Nc1ccc(C2CCN(C(=O)c3cccc(F)c3)CC2)cc1)C1CN(c2ccnnc2)C1` [Example 554, N-{4-[1-(3-fluorobenzoyl)piperidin-4-yl]phenyl}-1-(pyridazin-4-yl)azetidine-3-carboxamide] is 5.5-fold higher in IC50: 0.48 nM for the first, 2.63 nM for the second. The first is the more potent here.

First: O=C(Nc1ccc(C2CCN(C(=O)c3cc(F)cc(F)c3)CC2)cc1)C1CN(c2ccnnc2)C1 [Example 552, N-{4-[1-(3,5-difluorobenzoyl)piperidin-4-yl]phenyl}-1-(pyridazin-4-yl)azetidine-3-carboxamide]
Second: O=C(Nc1ccc(C2CCN(C(=O)c3ccc(C(F)(F)F)cc3)CC2)cc1)C1CN(c2ccnnc2)C1 [Example 553, 1-(pyridazin-4-yl)-N-(4-{1-[4-(trifluoromethyl)benzoyl]piperidin-4-yl}phenyl)azetidine-3-carboxamide]
The IC50 of the first is 13-fold lower: 3.32 nM for the first, 44.1 nM for the second. The first is the more potent here.

First: O=C(Nc1ccc(C2CCN(C(=O)c3ccc(OC(F)(F)F)cc3)CC2)cc1)C1CN(c2ccnnc2)C1 [Example 555, 1-(pyridazin-4-yl)-N-(4-{1-[4-(trifluoromethoxy)benzoyl]piperidin-4-yl}phenyl)azetidine-3-carboxamide]
Second: O=C(Nc1ccc(C2CCN(C(=O)c3cccc(OC(F)(F)F)c3)CC2)cc1)C1CN(c2ccnnc2)C1 [Example 562, 1-(pyridazin-4-yl)-N-(4-{1-[3-(trifluoromethoxy)benzoyl]piperidin-4-yl}phenyl)azetidine-3-carboxamide]
The IC50 of the first is 2.5-fold higher: 23.9 nM for the first, 9.45 nM for the second.

Compared with `CC(C)CC(=O)N1CCC(c2ccc(NC(=O)C3CN(c4ccnnc4)C3)cc2)CC1` [Example 556, N-{4-[1-(3-methylbutanoyl)piperidin-4-yl]phenyl}-1-(pyridazin-4-yl)azetidine-3-carboxamide], `CC(C)(C)C(=O)N1CCC(c2ccc(NC(=O)C3CN(c4ccnnc4)C3)cc2)CC1` [Example 559, N-{4-[1-(2,2-dimethylpropanoyl)piperidin-4-yl]phenyl}-1-(pyridazin-4-yl)azetidine-3-carboxamide] is 4.5-fold lower in IC50: 5.98 nM for the first, 1.33 nM for the second.

Compared with `O=C(Nc1ccc(C2CCN(C(=O)CC(F)(F)F)CC2)cc1)C1CN(c2ccnnc2)C1` [Example 557, 1-(pyridazin-4-yl)-N-{4-[1-(3,3,3-trifluoropropanoyl)piperidin-4-yl]phenyl}azetidine-3-carboxamide], `O=C(Nc1ccc(C2CCN(C(=O)Cc3ccc(C(F)(F)F)cc3)CC2)cc1)C1CN(c2ccnnc2)C1` [Example 563, 1-(pyridazin-4-yl)-N-[4-(1-{[4-(trifluoromethyl)phenyl]acetyl}piperidin-4-yl)phenyl]azetidine-3-carboxamide] is 2.4-fold higher in IC50: 10.2 nM for the first, 24.2 nM for the second. The first is the more potent here.

Compared with `O=C(Nc1ccc(C2CCN(C(=O)C(F)(F)c3ccccc3)CC2)cc1)C1CN(c2ccnnc2)C1` [Example 558, N-(4-{1-[difluoro(phenyl)acetyl]piperidin-4-yl}phenyl)-1-(pyridazin-4-yl)azetidine-3-carboxamide], `O=C(Nc1ccc(C2CCN(C(=O)Cc3ccc(OC(F)(F)F)cc3)CC2)cc1)C1CN(c2ccnnc2)C1` [Example 561, 1-(pyridazin-4-yl)-N-[4-(1-{[4-(trifluoromethoxy)phenyl]acetyl}piperidin-4-yl)phenyl]azetidine-3-carboxamide] is 94-fold higher in IC50: 0.66 nM for the first, 62.2 nM for the second.

First: O=C(Nc1ccc(C2CCN(C(=O)C3CCC(F)(F)CC3)CC2)cc1)C1CN(c2ccnnc2)C1 [Example 560, N-(4-{1-[(4,4-difluorocyclohexyl)carbonyl]piperidin-4-yl}phenyl)-1-(pyridazin-4-yl)azetidine-3-carboxamide]
Second: O=C(Nc1ccc(S(=O)(=O)C2CCN(C(=O)C3CCCCC3)CC2)cc1)C1CN(c2cccnn2)C1 [Example 568, N-(4-{[1-(cyclohexylcarbonyl)piperidin-4-yl]sulfonyl}phenyl)-1-(pyridazin-3-yl)azetidine-3-carboxamide]
The IC50 of the first is 8.2-fold lower: 5.85 nM for the first, 48.2 nM for the second.

`O=C(Nc1ccc(S(=O)(=O)C2CCN(C(=O)c3cccc(Cl)c3)CC2)cc1)C1CN(c2cccnn2)C1` [Example 564, N-(4-{[1-(3-chlorobenzoyl)piperidin-4-yl]sulfonyl}phenyl)-1-(pyridazin-3-yl)azetidine-3-carboxamide] and `Cc1cccc(C(=O)N2CCC(S(=O)(=O)c3ccc(NC(=O)C4CN(c5cccnn5)C4)cc3)CC2)c1` [Example 580, N-(4-{[1-(3-methylbenzoyl)piperidin-4-yl]sulfonyl}phenyl)-1-(pyridazin-3-yl)azetidine-3-carboxamide] are within 1.5-fold of each other in IC50: 79.2 nM for the first, 78 nM for the second.

`CC(C)(C)c1ccc(C(=O)N2CCC(S(=O)(=O)c3ccc(NC(=O)C4CN(c5cccnn5)C4)cc3)CC2)cc1` [Example 565, N-(4-{[1-(4-tert-butylbenzoyl)piperidin-4-yl]sulfonyl}phenyl)-1-(pyridazin-3-yl)azetidine-3-carboxamide] and `Cc1ccc(C(=O)N2CCC(S(=O)(=O)c3ccc(NC(=O)C4CN(c5cccnn5)C4)cc3)CC2)cc1` [Example 567, N-(4-{[1-(4-methylbenzoyl)piperidin-4-yl]sulfonyl}phenyl)-1-(pyridazin-3-yl)azetidine-3-carboxamide] are within 1.5-fold of each other in IC50: 74.1 nM for the first, 76.5 nM for the second.

`COc1ccc(C(=O)N2CCC(S(=O)(=O)c3ccc(NC(=O)C4CN(c5cccnn5)C4)cc3)CC2)cc1` [Example 566, N-(4-{[1-(4-methoxybenzoyl)piperidin-4-yl]sulfonyl}phenyl)-1-(pyridazin-3-yl)azetidine-3-carboxamide] and `O=C(Nc1ccc(S(=O)(=O)C2CCN(C(=O)c3ccc(Cl)cc3)CC2)cc1)C1CN(c2cccnn2)C1` [Example 573, N-(4-{[1-(4-chlorobenzoyl)piperidin-4-yl]sulfonyl}phenyl)-1-(pyridazin-3-yl)azetidine-3-carboxamide] are within 1.5-fold of each other in IC50: 82.2 nM for the first, 81.9 nM for the second.

`O=C(Nc1ccc(S(=O)(=O)C2CCN(C(=O)CC3CC3)CC2)cc1)C1CN(c2cccnn2)C1` [Example 569, N-(4-{[1-(cyclopropylacetyl)piperidin-4-yl]sulfonyl}phenyl)-1-(pyridazin-3-yl)azetidine-3-carboxamide] and `O=C(Nc1ccc(S(=O)(=O)C2CCN(C(=O)CCC(F)(F)F)CC2)cc1)C1CN(c2cccnn2)C1` [Example 575, 1-(pyridazin-3-yl)-N-(4-{[1-(4,4,4-trifluorobutanoyl)piperidin-4-yl]sulfonyl}phenyl)azetidine-3-carboxamide] are within 1.5-fold of each other in IC50: 207 nM for the first, 269 nM for the second.

First: COc1ccccc1C(=O)N1CCC(S(=O)(=O)c2ccc(NC(=O)C3CN(c4cccnn4)C3)cc2)CC1 [Example 570, N-(4-{[1-(2-methoxybenzoyl)piperidin-4-yl]sulfonyl}phenyl)-1-(pyridazin-3-yl)azetidine-3-carboxamide]
Second: Cc1ccccc1C(=O)N1CCC(S(=O)(=O)c2ccc(NC(=O)C3CN(c4cccnn4)C3)cc2)CC1 [Example 578, N-(4-{[1-(2-methylbenzoyl)piperidin-4-yl]sulfonyl}phenyl)-1-(pyridazin-3-yl)azetidine-3-carboxamide]
The IC50 of the first is 7.1-fold higher: 631 nM for the first, 88.7 nM for the second. The second is the more potent here.

Going from `CC[C@H](C(=O)N1CCC(S(=O)(=O)c2ccc(NC(=O)C3CN(c4cccnn4)C3)cc2)CC1)c1ccccc1` [Example 571, N-[4-({1-[(2S)-2-phenylbutanoyl]piperidin-4-yl}sulfonyl)phenyl]-1-(pyridazin-3-yl)azetidine-3-carboxamide] to `O=C(Nc1ccc(S(=O)(=O)C2CCN(C(=O)c3ccccc3)CC2)cc1)C1CN(c2cccnn2)C1` [Example 574, N-{4-[(1-benzoylpiperidin-4-yl)sulfonyl]phenyl}-1-(pyridazin-3-yl)azetidine-3-carboxamide], the IC50 falls from 118 nM to 55.3 nM (2.1-fold). The second is the more potent here.

`CC(C)c1ccc(C(=O)N2CCC(S(=O)(=O)c3ccc(NC(=O)C4CN(c5cccnn5)C4)cc3)CC2)cc1` [Example 572, N-[4-({1-[4-(propan-2-yl)benzoyl]piperidin-4-yl}sulfonyl)phenyl]-1-(pyridazin-3-yl)azetidine-3-carboxamide] and `O=C(Nc1ccc(S(=O)(=O)C2CCN(C(=O)c3cccc(F)c3)CC2)cc1)C1CN(c2cccnn2)C1` [Example 583, N-(4-{[1-(3-fluorobenzoyl)piperidin-4-yl]sulfonyl}phenyl)-1-(pyridazin-3-yl)azetidine-3-carboxamide] are within 1.5-fold of each other in IC50: 59.8 nM for the first, 87.4 nM for the second.

`O=C(Nc1ccc(S(=O)(=O)C2CCN(C(=O)c3cc(F)ccc3F)CC2)cc1)C1CN(c2cccnn2)C1` [Example 576, N-(4-{[1-(2,5-difluorobenzoyl)piperidin-4-yl]sulfonyl}phenyl)-1-(pyridazin-3-yl)azetidine-3-carboxamide] and `O=C(Nc1ccc(S(=O)(=O)C2CCN(C(=O)c3ccccc3F)CC2)cc1)C1CN(c2cccnn2)C1` [Example 577, N-(4-{[1-(2-fluorobenzoyl)piperidin-4-yl]sulfonyl}phenyl)-1-(pyridazin-3-yl)azetidine-3-carboxamide] are within 1.5-fold of each other in IC50: 84.8 nM for the first, 93 nM for the second.

Going from `O=C(Nc1ccc(S(=O)(=O)C2CCN(C(=O)Cc3ccc(F)cc3)CC2)cc1)C1CN(c2cccnn2)C1` [Example 579, N-[4-({1-[(4-fluorophenyl)acetyl]piperidin-4-yl}sulfonyl)phenyl]-1-(pyridazin-3-yl)azetidine-3-carboxamide] to `O=C(Nc1ccc(S(=O)(=O)C2CCN(C(=O)Cc3cccc(F)c3)CC2)cc1)C1CN(c2cccnn2)C1` [Example 582, N-[4-({1-[(3-fluorophenyl)acetyl]piperidin-4-yl}sulfonyl)phenyl]-1-(pyridazin-3-yl)azetidine-3-carboxamide], the IC50 rises from 267 nM to 627 nM (2.3-fold).

With `Cc1cccc(C(=O)N2CCC(S(=O)(=O)c3ccc(NC(=O)C4CN(c5cccnn5)C4)cc3)CC2)c1C` [Example 581, N-(4-{[1-(2,3-dimethylbenzoyl)piperidin-4-yl]sulfonyl}phenyl)-1-(pyridazin-3-yl)azetidine-3-carboxamide] the IC50 was 80.7 nM.
